Data set [1] deals with human PRP. Briefly: Human platelet aggregation inhibition test. Particulars: ADP (1×10^−5 M) induced aggregation. Format: cell-based. The method, then:
Blood collected from healthy human volunteers in aqueous trisodium citrate solution was centrifuged at 150 g for 15 min and the upper layer was recovered to obtain platelet-rich plasma (PRP). The residual blood was centrifuged at 3000 g for 10 min and the supernatant was collected as platelet-poor plasma (PPP). Platelet concentration in the PRP was determined using the Z series Beckman Coulter particle counter (Beckman, Fullerton, Calif.) and adjusted to 250,000 platelets/μL using PPP. 480 μL of PRP was pre-incubated at 37° C. and stirred at 1200 rpm with 10 μL aqueous test compound solution for 1 min prior to induction of aggregation by the addition of 10 μL of aqueous adenosine diphosphate (ADP) solution to adjust the final ADP concentration in the PRP to 1×10^−5 M. The maximal amplitude of aggregation response within 3 min was determined and measured in triplicate using the Chronolog model 490 aggregometer (Chrono-log Corp., Havertown, Pa.). Percent inhibition of aggregation was calculated from the maximum decrease in optical density of the control (addition of water in place of the test compound solution) sample and of the samples containing test compound. The test compound was added to adjust the final concentration to the range 10^−9 to 10^−4 M, and IC50 values were determined by inhibition percentage of aggregation at each concentration.

The test system of data set [2] is MCT-induced pulmonary arterial hypertension. Briefly: Rat monocrotaline (MCT) model of pulmonary arterial hypertension. Particulars: 30 mg/kg oral gavage twice a day for 21 days; 60 mg/kg MCT s.c.; male Wistar rats. Type of data set: in vivo. The method, then: Male Wistar rats (100-150 g at start of study) (Charles River Laboratories, Wilmington, Mass.) were housed two per cage and maintained in a humidity—(40-60%) and temperature—(68-72° F.) controlled facility on a 12 hr:12 hr light/dark cycle (lights on at 6:30 am) with free access to food (Harlan Teklad, Orange Calif., Rodent Diet 8604) and water. Rats were allowed one week of habituation to the animal facility before testing.
The rat monocrotaline (MCT) model is a standard and well-accepted model of pulmonary arterial hypertension. MCT induces acute pulmonary endothelial damage associated with pulmonary vascular inflammation. […]
Rats were randomly given a single subcutaneous injection of either 60 mg/kg MCT (Sigma, St. Louis, Mo.) or 0.9% saline (sham) and assigned to receive oral administration of 20% hydroxypropyl beta-cyclodextrin (vehicle) or test compound (30 mg/kg; FIGS. 7 and 8). […] Heart chamber weights were measured on Day 22. […] The ratio of right ventricular (RV) weight to left ventricle plus septum (LV+S) weight (this ratio is indicated as “RV/(LV+S)” in FIGS. 7 and 8) was calculated as an index of the hypertrophic response to the induced pulmonary arterial hypertension and, as such, as an index of a test compound's therapeutic efficacy for pulmonary arterial hypertension.

For data set [3], the target named is human prostacyclin (PGI2) receptor (Homo sapiens (Human), UniProt P43119). Briefly: HTRF assay for direct cAMP measurement. Type of data set: cell-based. Particulars: recombinant CHO-K1 cells stably transfected with human prostacyclin receptor; cAMP increase. The text has this:
Compounds were screened for agonists of the human prostacyclin (PGI2) receptor using the HTRF® assay for direct cAMP measurement (Gabriel et al., ASSAY and Drug Development Technologies, 1:291-303, 2003) and recombinant CHO-K1 cells stably transfected with human prostacyclin receptor. CHO-K1 cells were obtained from ATCC® (Manassas, Va.; Catalog # CCL-61). An agonist of the prostacyclin receptor was detected in HTRF® assay for direct cAMP measurement as a compound which increased cAMP concentration. HTRF® assay also was used to determine EC50 values for prostacyclin receptor agonists.
The HTRF® assay kit was purchased from Cisbio-US, Inc. (Bedford, Mass.; Catalog #62AM4PEC). The HTRF® assay supported by the kit is a competitive immunoassay between endogenous cAMP produced by the CHO-K1 cells and tracer cAMP labeled with the dye d2. The tracer binding is visualized by a monoclonal anti-cAMP antibody labeled with Cryptate. The specific signal (i.e., fluorescence resonance energy transfer, FRET) is inversely proportional to the concentration of unlabeled cAMP in the standard or sample.
The fluorescence ratio (665 nm/620 nm) of the standards (0.17 to 712 nM cAMP) included in the assay was calculated and used to generate a cAMP standard curve according to the kit manufacturer's instructions. The fluorescence ratio of the samples (test compound or compound buffer) was calculated and used to deduce respective cAMP concentrations by reference to the cAMP standard curve.
The HTRF® assay was carried out using a two-step protocol essentially according to the kit manufacturer's instructions, in 20 μL total volume per well in 384-well plate format (ProxiPlates; PerkinElmer, Fremont, Calif.; catalog #6008280). To each of the experimental wells was transferred 3000 recombinant CHO-K1 cells in 5 μL assay buffer (phosphate buffered saline containing calcium chloride and magnesium chloride (Invitrogen, Carlsbad, Calif.; catalog #14040) supplemented with IBMX (100 μM) and rolipram (10 μM) (phosphodiesterase inhibitors; Sigma-Aldrich, St. Louis, Mo.; catalog #15879 and catalog # R6520, respectively) and 0.1% bovine serum albumin (BSA) fraction V (Sigma-Aldrich; catalog # A3059)), followed by test compound in 5 μL assay buffer or 5 μL assay buffer. The plate was then incubated at room temperature for 1 h. To each well was then added 5 μL cAMP-d2 conjugate in lysis buffer and 5 μL Cryptate conjugate in lysis buffer according to the kit manufacturer's instructions. The plate was then further incubated at room temperature for 1 h, after which the assay plate was read.
The HTRF® readout was accomplished using a PHERAstar (BMG LABTECH Inc., Durham, N.C.) or EnVision™ (PerkinElmer, Fremont Calif.) microplate reader.

Data set [4] concerns human hepatocytes. Briefly: Hepatocyte metabolism of Compound 22 sodium salt, human. Format: in vitro ADME. Particulars: 100 μM, up to 240 min. The method, then:
(§1) All cryopreserved hepatocytes were thawed and diluted to a desired cell density (1×10^6 cells/mL) according to the supplier's (Xenotech) guidelines using hepatocytes isolation kit. Cell viability was determined by trypan blue exclusion using a hemacytometer. A typical incubation mixture contained human, cynomolgus monkey, beagle dog or Sprague-Dawley rat hepatocytes (200,000 cells/199 μL) in designated wells of a 48-well plate containing incubation medium (Phenol red-free Waymouth's medium). […] One incubation plate was prepared for each time point (i.e., 0, 60, 120, and 240 min) with samples being prepared in duplicate. Incubations were conducted at 37° C., 5% CO2 and 100% relative humidity in an incubator. At each time point, one incubation plate was removed form the incubator, and reaction was terminated by adding 400 μL of acetonitrile containing an internal standard. For the 0 min time point, the reactions were kept on ice before adding Compound 22 sodium salt. After 5 min on ice, the reaction mixture was terminated by adding 400 μL of acetonitrile containing an internal standard. Supernatants were transferred to labeled strip tubes with caps, which were vortexed for 3 min, and then sonicated for an additional 3 min. The samples were centrifuged for 10 min at 4000 rpm and the supernatants were used for metabolite identification. […]

Data set [5] relates to cynomolgus monkey hepatocytes. Briefly: Hepatocyte metabolism of Compound 22 sodium salt, monkey. Format: in vitro ADME. Particulars: 100 μM, up to 240 min. The method, then:
as §1

In data set [6] the test system is beagle dog hepatocytes. As to the kind of experiment: Hepatocyte metabolism of Compound 22 sodium salt, dog. Format: in vitro ADME. Particulars: 100 μM, up to 240 min. Here is the method: as §1
Data set [7] relates to Sprague-Dawley rat hepatocytes. Briefly: Hepatocyte metabolism of Compound 22 sodium salt, rat. Type of data set: in vitro ADME. Particulars: 100 μM, up to 240 min. Here is the method:
as §1

Structures are written as SMILES.

Sequence of human prostacyclin (PGI2) receptor (P43119 whole entry): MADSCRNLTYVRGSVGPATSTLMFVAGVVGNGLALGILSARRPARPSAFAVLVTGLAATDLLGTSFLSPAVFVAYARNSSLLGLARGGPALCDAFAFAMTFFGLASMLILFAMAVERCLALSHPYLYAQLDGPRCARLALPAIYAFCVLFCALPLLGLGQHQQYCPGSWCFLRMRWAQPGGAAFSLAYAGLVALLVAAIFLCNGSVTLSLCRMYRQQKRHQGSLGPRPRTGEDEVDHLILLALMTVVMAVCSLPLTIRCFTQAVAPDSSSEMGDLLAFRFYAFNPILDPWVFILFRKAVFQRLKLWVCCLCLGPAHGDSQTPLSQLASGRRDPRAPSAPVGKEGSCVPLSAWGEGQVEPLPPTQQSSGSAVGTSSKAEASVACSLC

The molecule `Cc1ccc(N(C(=O)OC[C@H]2CC[C@H](COCC(=O)O)CC2)c2ccccc2)s1` [Compound 50, 2-(((1r,4r)-4-(((5-methylthiophen-2-yl)(phenyl)carbamoyloxy)methyl)cyclohexyl)methoxy)acetic acid] yielded an IC50 in data set [1] of 12.6 nM. For `O=C(O)COC[C@H]1CC[C@H](COC(=O)N(c2ccccc2)c2cccc(F)c2)CC1` [Compound 23, 2-(((1r,4r)-4-(((3-fluorophenyl)(phenyl)carbamoyloxy)methyl)cyclohexyl)methoxy)acetic acid], the “hypertrophic response, RV/(LV+S)” value in data set [2] was “inhibited the hypertrophic response”. In the case of `COc1ccc(N(C(=O)OC[C@H]2CC[C@H](COCC(=O)O)CC2)c2cccc(F)c2)cc1` [Compound 55, 2-(((1r,4r)-4-(((3-fluorophenyl)(4-methoxyphenyl)carbamoyloxy)methyl)cyclohexyl)methoxy)acetic acid], in data set [3], the EC50 was determined as 5.14 nM. For the molecule `O=C(O)COC[C@H]1CC[C@@H](COC(=O)N(c2ccccc2)c2cccc(Cl)c2)CC1` [Compound 30, 2-(((1s,4s)-4-(((3-chlorophenyl)(phenyl)carbamoyloxy)methyl)cyclohexyl)methoxy)acetic acid], the IC50 in data set [1] was 210 nM. As for `Cc1ccc(N(C(=O)OC[C@H]2CC[C@H](COCC(=O)O)CC2)c2cccc(F)c2)s1` [Compound 71, 2-(((1r,4r)-4-(((3-fluorophenyl)(5-methylthiophen-2-yl)carbamoyloxy)methyl)cyclohexyl)methoxy)acetic acid], the EC50 in data set [3] turned out to be 19.1 nM. Turning to `O=C(O)COC[C@H]1CC[C@H](CNC(=O)N(c2ccccc2)c2ccccc2)CC1` [Compound 2, 2-(((1r,4r)-4-((3,3-diphenylureido)methyl)cyclohexyl)methoxy)acetic acid], in data set [1], the IC50 was 73 nM. Turning to `O=C(O)COC[C@H]1CC[C@@H](COC(=O)N(c2ccccc2)c2ccc(F)cc2)CC1` [Compound 35, 2-(((1s,4s)-4-(((4-fluorophenyl)(phenyl)carbamoyloxy)methyl)cyclohexyl)methoxy)acetic acid], the EC50 in data set [3] came to 56.9 nM.

In the case of `CCOc1ccc(N(C(=O)OC[C@H]2CC[C@H](COCC(=O)O)CC2)c2ccccc2)cc1` [Compound 88, 2-(((1r,4r)-4-(((4-ethoxyphenyl)(phenyl)carbamoyloxy)methyl)cyclohexyl)methoxy)acetic acid], in data set [1], 70 nM corresponded to half-maximal inhibition (IC50). Regarding `O=C(O)CNC(=O)COC[C@H]1CC[C@H](COC(=O)N(c2ccccc2)c2ccc(Cl)cc2)CC1` [Compound 100, 2-(2-(((1r,4r)-4-(((4-chlorophenyl)(phenyl)carbamoyloxy)methyl)cyclohexyl)methoxy)acetamido) acetic acid], in data set [4], the “metabolite of Compound 22 sodium salt in human hepatocytes” value is given as “detected”. For the same molecule, the “metabolite of Compound 22 sodium salt in monkey hepatocytes” value in data set [5] was “detected”. For the same molecule, the “metabolite of Compound 22 sodium salt in dog hepatocytes” value in data set [6] is “only detected in human and monkey”. For the same molecule, in data set [7], the “metabolite of Compound 22 sodium salt in rat hepatocytes” value was “only detected in human and monkey”. As to `O=C(O)COC[C@H]1CC[C@H](CNC(=O)N(c2ccccc2)c2cccc(Cl)c2)CC1` [Compound 6, 2-(((1r,4r)-4-((3-(3-chlorophenyl)-3-phenylureido)methyl)cyclohexyl)methoxy)acetic acid], the EC50 in data set [3] was 61.1 nM.
